From ChEMBL document CHEMBL1201862, “PubChem BioAssay data set” (2004)
Calls of active or inactive are those of the source. Rule as the data show it, for most assays here: actives have a measured IC50 and inactives only a lower limit.

Columns and labels:
[1] = target: T1, Tyrosine-protein phosphatase non-receptor type 7 (Homo sapiens, UniProt P35236); assay: SAR analysis of chemical inhibitors of HePTP using a Fluorescent assay - Set 2. [Related pubchem assays (depositor defined):AID1059, AID1077, AID1661, AID2085, AID521]; format: functional
T1 sequence (P35236 whole entry): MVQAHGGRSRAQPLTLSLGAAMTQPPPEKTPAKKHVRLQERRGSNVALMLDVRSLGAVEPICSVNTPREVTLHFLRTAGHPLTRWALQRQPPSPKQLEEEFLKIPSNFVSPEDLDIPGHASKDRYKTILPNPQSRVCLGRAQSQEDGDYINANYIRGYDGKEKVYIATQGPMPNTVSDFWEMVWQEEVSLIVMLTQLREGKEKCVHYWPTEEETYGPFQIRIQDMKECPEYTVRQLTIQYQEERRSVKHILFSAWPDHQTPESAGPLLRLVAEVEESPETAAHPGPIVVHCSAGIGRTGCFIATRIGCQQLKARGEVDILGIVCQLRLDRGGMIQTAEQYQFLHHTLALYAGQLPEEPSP

[2] = target: T2, Dual specificity protein phosphatase 3 (Homo sapiens, UniProt P51452); assay: SAR VHR1 Fluorescent Assay for In Vitro dose response studies Set 2. [Related pubchem assays (depositor defined):AID1654, AID1661, AID1878]; format: functional
T2 sequence (P51452 whole entry): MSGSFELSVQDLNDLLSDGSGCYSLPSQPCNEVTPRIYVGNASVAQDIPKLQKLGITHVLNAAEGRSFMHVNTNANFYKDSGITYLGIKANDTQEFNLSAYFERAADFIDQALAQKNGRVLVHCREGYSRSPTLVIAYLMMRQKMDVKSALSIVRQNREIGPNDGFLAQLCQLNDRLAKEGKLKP

[3] = inhibition of K1F phage lysis, E. coli UTI89, bacterial capsule biogenesis inhibitors, alamar blue (AID 488966); format: functional
[4] = target: T3, Tyrosine-protein phosphatase non-receptor type 12 (Homo sapiens, UniProt Q05209); assay: SAR Selectivity Analysis of small molecule inhibitors of PEST using pCAP in a fluorescence assay. [Related pubchem assays (depositor defined):AID1779, AID1784, AID2135]; format: functional
T3 sequence (Q05209 whole entry): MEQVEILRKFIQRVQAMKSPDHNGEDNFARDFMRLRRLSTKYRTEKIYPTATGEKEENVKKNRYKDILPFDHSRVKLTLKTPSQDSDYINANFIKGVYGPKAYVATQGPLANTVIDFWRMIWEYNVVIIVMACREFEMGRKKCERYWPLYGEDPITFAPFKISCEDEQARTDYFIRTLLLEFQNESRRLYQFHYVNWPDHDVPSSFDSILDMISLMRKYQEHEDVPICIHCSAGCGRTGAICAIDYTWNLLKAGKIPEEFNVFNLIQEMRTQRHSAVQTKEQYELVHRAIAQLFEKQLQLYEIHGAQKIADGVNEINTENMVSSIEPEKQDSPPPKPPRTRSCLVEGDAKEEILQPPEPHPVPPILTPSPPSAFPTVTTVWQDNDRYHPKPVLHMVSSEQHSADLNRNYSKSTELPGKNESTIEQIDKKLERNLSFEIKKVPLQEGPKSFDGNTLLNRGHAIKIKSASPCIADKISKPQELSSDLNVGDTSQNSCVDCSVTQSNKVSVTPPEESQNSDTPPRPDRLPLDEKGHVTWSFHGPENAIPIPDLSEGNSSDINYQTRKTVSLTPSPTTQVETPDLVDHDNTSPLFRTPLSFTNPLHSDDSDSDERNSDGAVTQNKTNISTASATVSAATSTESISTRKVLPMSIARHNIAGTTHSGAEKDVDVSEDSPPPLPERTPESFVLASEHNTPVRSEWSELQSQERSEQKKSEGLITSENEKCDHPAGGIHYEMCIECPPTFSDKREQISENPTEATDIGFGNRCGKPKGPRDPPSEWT

[5] = target: T2, Dual specificity protein phosphatase 3; assay: SAR VHR1 Fluorescent Assay for In Vitro dose response studies. [Related pubchem assays (depositor defined):AID1654, AID1661, AID1878, AID1992, AID2004, AID2070, AID2085]; format: functional
[6] = target: T4, Tyrosine-protein phosphatase non-receptor type 22 (Homo sapiens, UniProt Q9Y2R2); assay: SAR LYP1 Fluorescent Assay using OMFP substrate for In Vitro dose response studies - Set 3. [Related pubchem assays (depositor defined):AID1779, AID1784, AID2140, AID2686]; format: functional
T4 sequence (Q9Y2R2 whole entry): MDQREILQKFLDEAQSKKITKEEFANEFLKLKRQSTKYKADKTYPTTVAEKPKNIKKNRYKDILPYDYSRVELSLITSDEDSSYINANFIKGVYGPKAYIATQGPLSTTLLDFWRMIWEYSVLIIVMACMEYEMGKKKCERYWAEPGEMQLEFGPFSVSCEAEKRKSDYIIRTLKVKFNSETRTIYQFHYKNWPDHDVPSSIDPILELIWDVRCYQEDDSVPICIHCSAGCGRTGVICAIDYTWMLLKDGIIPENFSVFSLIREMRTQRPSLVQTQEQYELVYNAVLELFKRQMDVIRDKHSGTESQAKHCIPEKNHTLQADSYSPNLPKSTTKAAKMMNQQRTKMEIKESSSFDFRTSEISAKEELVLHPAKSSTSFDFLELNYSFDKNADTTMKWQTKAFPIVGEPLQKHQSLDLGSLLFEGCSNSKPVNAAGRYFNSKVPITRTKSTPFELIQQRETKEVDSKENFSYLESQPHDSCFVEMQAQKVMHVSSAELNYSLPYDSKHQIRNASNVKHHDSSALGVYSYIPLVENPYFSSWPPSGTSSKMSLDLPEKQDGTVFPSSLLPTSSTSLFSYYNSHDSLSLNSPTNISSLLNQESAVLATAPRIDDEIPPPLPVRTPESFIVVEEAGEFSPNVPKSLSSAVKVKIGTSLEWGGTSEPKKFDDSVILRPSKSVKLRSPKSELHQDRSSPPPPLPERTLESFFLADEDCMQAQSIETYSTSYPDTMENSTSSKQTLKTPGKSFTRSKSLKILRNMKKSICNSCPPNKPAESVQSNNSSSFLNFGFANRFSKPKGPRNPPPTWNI

[7] = target: T2, Dual specificity protein phosphatase 3; assay: MOA VHR1 Fluorescent secondary assay for identification of redox-state modulating compounds. [Related pubchem assays (depositor defined):AID1654, AID1661, AID1878, AID1957]
[8] = target: T1, Tyrosine-protein phosphatase non-receptor type 7; assay: redox-dependent HePTP inhibition, mechanism study, biochemical, fluorescence (AID 2068); format: functional
[9] = target: T1, Tyrosine-protein phosphatase non-receptor type 7; assay: HePTP (PTPN7) phosphatase inhibitor potency, SAR follow-up, biochemical, set 2 (AID 449736); format: functional
[10] = target: T5, Dual specificity protein phosphatase 6 (Rattus norvegicus, UniProt Q64346); format: functional;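 also: confirmatory in vitro dose-response testing of MKP-3 inhibition; recombinant His-tagged MKP-3 made in E. coli BL21 with OMFP substrate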
T5 sequence (Q64346 whole entry): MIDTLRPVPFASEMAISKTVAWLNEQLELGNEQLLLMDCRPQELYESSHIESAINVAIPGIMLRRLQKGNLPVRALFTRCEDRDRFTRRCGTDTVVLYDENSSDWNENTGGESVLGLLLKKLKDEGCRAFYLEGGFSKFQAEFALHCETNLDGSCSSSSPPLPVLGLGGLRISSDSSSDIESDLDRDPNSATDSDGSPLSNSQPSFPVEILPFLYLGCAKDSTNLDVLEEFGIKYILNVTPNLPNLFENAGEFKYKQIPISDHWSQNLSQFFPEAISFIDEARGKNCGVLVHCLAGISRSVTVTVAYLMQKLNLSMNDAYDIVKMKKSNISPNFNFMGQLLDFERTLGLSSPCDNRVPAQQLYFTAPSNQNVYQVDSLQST

[11] = target: Signal transducer and activator of transcription 3 (Homo sapiens, UniProt P40763); assay: STAT3 activators, late-stage profile, late-stage follow-up, cell-based, STAT1 reporter, BCL3 qPCR, cytotoxicity, panel member STAT3 Activation (AID 2049)
Chain of Signal transducer and activator of transcription 3 (P40763 whole entry): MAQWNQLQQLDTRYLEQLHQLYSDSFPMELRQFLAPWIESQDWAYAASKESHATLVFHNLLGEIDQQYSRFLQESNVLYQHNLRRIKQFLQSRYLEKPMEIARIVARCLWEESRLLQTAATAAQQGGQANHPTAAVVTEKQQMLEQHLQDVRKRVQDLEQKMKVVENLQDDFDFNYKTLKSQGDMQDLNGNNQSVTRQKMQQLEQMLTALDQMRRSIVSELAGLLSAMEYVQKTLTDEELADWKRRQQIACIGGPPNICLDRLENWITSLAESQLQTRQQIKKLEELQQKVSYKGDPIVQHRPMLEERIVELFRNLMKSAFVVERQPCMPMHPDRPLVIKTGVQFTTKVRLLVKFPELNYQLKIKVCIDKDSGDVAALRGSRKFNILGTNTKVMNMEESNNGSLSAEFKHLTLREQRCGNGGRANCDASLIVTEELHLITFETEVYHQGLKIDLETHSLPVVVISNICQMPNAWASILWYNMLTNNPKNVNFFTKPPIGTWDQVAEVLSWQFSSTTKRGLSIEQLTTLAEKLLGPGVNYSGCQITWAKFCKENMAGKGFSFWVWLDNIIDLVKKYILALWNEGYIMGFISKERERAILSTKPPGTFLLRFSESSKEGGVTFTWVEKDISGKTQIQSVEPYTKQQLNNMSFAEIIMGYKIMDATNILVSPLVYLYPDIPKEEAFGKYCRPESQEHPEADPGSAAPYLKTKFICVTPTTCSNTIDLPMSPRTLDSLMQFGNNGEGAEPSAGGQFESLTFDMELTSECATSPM

[12] = target: Cystic fibrosis transmembrane conductance regulator/Golgi-associated PDZ and coiled-coil motif-containing protein (Homo sapiens, UniProt P13569+Q9HD26); assay: CAL PDZ peptide-binding inhibitors, dose response, biochemical, fluorescence polarization, Cerulean-tagged CAL PDZ, cherry-picks (AID 504773)
Chain of Cystic fibrosis transmembrane conductance regulator/Golgi-associated PDZ and coiled-coil motif-containing protein (P13569 whole entry, other chains not shown): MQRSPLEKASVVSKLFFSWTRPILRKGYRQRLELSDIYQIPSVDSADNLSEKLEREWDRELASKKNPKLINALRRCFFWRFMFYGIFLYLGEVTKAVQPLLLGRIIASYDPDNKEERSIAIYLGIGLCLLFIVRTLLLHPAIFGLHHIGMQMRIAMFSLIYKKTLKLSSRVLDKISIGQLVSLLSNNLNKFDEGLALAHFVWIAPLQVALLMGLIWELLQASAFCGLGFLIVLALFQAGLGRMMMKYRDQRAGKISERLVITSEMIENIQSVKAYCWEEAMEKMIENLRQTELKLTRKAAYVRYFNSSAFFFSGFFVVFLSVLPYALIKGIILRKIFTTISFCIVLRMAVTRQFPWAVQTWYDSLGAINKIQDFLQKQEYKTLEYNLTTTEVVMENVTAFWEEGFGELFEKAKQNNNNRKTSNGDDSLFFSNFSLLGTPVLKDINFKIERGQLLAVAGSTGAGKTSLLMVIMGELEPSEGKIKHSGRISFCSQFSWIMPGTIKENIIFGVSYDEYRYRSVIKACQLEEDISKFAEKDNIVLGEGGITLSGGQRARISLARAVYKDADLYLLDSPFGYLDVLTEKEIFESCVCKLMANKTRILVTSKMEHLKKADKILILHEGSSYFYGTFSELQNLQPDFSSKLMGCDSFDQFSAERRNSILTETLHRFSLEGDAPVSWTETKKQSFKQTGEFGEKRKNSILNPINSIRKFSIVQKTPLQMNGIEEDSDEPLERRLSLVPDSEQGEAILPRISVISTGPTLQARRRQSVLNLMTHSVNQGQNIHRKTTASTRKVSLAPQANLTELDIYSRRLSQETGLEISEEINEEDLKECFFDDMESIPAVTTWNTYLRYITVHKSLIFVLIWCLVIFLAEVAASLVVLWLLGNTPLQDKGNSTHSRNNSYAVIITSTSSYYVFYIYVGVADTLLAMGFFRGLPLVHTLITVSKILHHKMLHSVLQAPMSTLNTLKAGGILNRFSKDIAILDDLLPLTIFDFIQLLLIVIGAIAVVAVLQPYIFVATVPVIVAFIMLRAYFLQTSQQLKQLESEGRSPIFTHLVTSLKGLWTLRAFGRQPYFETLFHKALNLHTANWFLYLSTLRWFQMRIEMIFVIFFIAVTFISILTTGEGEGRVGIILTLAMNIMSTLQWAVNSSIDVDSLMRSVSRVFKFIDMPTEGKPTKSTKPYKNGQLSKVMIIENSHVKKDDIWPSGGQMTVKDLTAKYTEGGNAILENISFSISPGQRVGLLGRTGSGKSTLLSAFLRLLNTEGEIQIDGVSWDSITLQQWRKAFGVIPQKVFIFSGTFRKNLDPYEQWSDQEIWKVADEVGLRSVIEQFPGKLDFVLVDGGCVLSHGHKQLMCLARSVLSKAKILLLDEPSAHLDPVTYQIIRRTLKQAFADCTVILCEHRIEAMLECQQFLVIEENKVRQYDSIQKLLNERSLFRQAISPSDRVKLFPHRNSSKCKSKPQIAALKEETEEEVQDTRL

COc1cc(C(=S)NCc2ccc(C(F)(F)F)cc2)ccc1O
IC50 [1]: > 100 µM (inactive) | IC50 [2]: 86.9 µM (active)

OC(CNc1ccnc2cc(Cl)ccc12)CNC1CCCCC1 (stereo not drawn)
IC50 [3]: > 150 µM (active)

CCOC(=O)C1=C(C)N=c2s/c(=C/c3cc(Cl)c(OCC(=O)O)c(OC)c3)c(=O)n2C1c1ccccc1Cl (stereo not drawn)
IC50 [4]: 7.63 µM (active) | IC50 [5]: 15.1 µM (active) | IC50 [6]: 30.5 µM (active) | IC50 [7]: 3.07 µM (active) | IC50 [8]: 1.65 µM (active) | IC50 [9]: 1.72 µM (active) | IC50 [2]: 41.1 µM (active) | IC50 [10]: 39.5 µM (active)

O=C(Nc1ccccc1Cl)c1cc(C2CC2)on1
EC50 [11]: 6.08 µM (active)

OC(c1ccccc1)(c1ccccc1)c1nccc2ccccc12
AC50 [12]: 44.9 µM (active)
